The source of these data is patent US20020156236A1, “Binding sites for phosphotyrosine binding domains” (priority 1995, published 2002).

Where a SMILES comes first, the peptide text is derived from it. Where no end group is shown, it is not given here.

Assay [1] deals with T1, PTB domain/c-erbB2 binding (GST-PTB domain of SHC; c-erbB2 from SKBR3 lysate) (Homo sapiens, UniProt P29353).
T1 construct: GST-PTB domain fusion proteins were expressed from recombinant baculovirus in sf9 cells; made in house; host or cells: Sf9 cells (recombinant baculovirus) for GST-PTB; c-erbB2 endogenous in SKBR3 cell lysate
T1 sequence (P29353 156-341): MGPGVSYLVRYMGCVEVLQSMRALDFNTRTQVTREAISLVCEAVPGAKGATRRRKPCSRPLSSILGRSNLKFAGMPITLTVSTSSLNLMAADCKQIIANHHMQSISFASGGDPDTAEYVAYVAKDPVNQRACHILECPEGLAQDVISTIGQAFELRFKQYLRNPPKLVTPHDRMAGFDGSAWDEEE
The assay can be described thus: biochemical.

Assay [2] addresses T2, GST-PTB domain fusion protein (Homo sapiens, UniProt P29353).
T2 construct: 100 ng of GST-PTB domain or GST-SH2 domain fusion protein were incubated; made in house; host or cells: Sf9 cells (recombinant baculovirus)
T2 sequence (P29353 156-339 limits assumed): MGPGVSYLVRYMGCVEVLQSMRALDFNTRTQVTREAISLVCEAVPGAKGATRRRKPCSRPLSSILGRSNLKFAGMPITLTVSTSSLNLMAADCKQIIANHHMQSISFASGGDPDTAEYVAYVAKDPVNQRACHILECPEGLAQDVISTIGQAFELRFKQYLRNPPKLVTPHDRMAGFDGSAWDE
The assay can be described thus: Direct binding of biotinylated peptides to PTB domain (streptavidin-coupled alkaline phosphatase detection). The settings on record: 500 nM biotinylated peptide, FIG. 3. As to the method:
(§1) The PTB domain was immunoprecipitated and the washed pellet assayed for the presence of bound peptide with streptavidin-coupled alkaline phosphatase. […] See, Kavanaugh and Williams, supra.
Peptides were biotinylated during synthesis and HPLC purified. 100 ng of GST-PTB domain or GST-SH2 domain fusion protein were incubated in 1×hybridization buffer with 500 nM biotinylated phosphopeptide for 1 hour at 4° C., immunoprecipitated as described in Example 2, above, washed once, and the pellets incubated with 0.25 units of streptavidin-alkaline phosphatase for 5 minutes at 4° C. The pellets were washed twice more, incubated for 3 minutes at room temperature with 1 mg/ml p-nitrophenylphosphate in 100 mM glycine, pH 10.1, 1 mM ZnCl2 and 1 mM MgCl2. The absorbance was measured at 405 nm.

In assay [3] the target is T3, SHC PTB domain / pp145 derived from activated B cells (Homo sapiens, UniProt P29353).
T3 sequence (P29353 156-339 limits assumed): T2 sequence (P29353 156-339 limits assumed)
Description: Blocking of in vitro association of SHC PTB domain with pp145. The format is binding.
Excerpt: as §1

Assay [4] concerns the target T4, SH2 domain of SHC (GST-SH2 domain fusion protein) (Homo sapiens, UniProt P29353).
T4 construct: 100 ng of GST-PTB domain or GST-SH2 domain fusion protein were incubated
T4 sequence (P29353 488-579 limits assumed): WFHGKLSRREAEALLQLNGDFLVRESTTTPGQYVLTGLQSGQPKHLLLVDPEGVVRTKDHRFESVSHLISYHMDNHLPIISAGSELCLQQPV
The assay can be described thus: Direct binding of biotinylated peptides to SH2 domain (streptavidin-coupled alkaline phosphatase detection). The settings on record: 500 nM biotinylated peptide, FIG. 3.

Setting [5] is: Affinity (IC50), Table 3, ability to block PTB domain/c-erbB2 binding.

A word on the IC50: it is the point on the concentration scale where inhibition reaches its midpoint. Turning to `CC(C)C[C@H](NC(=O)[C@H](CC(N)=O)NC(=O)[C@H](CC(=O)O)NC(=O)[C@H](Cc1ccccc1)NC(=O)[C@H](C)NC(=O)[C@@H]1CCCN1C(=O)[C@H](CO)NC(=O)[C@H](Cc1ccccc1)NC(=O)[C@H](C)NC(=O)[C@@H]1CCCN1)C(=O)N[C@@H](COP(=O)(O)O)C(=O)N[C@@H](COP(=O)(O)O)C(=O)N[C@@H](Cc1c[nH]c2ccccc12)C(=O)N[C@@H](CC(=O)O)C(=O)N[C@@H](CCC(N)=O)C(=O)N[C@@H](CC(N)=O)C(=O)N[C@@H](CO)C(=O)N[C@@H](CO)C(=O)N[C@@H](CCC(=O)O)C(=O)N[C@@H](CCC(N)=O)C(=O)NCC(=O)O` [PAFSPAFDNL (pS) (pS) WDQNSSEQG] (HELM PEPTIDE1{P.A.F.S.P.A.F.D.N.L.[O=C([C@H](COP(=O)(O)O)N[*:1])[*:2]].[O=C([C@H](COP(=O)(O)O)N[*:1])[*:2]].W.D.Q.N.S.S.E.Q.G}$$$$V2.0), the IC50 in assay [1] (setting [5]) was greater than 30 µM.
As to `CC(C)C[C@H](NC(=O)[C@H](CC(N)=O)NC(=O)[C@H](CC(=O)O)NC(=O)[C@H](Cc1ccccc1)NC(=O)[C@H](C)NC(=O)[C@@H]1CCCN1C(=O)[C@H](CO)NC(=O)[C@H](Cc1ccccc1)NC(=O)[C@H](C)NC(=O)[C@@H]1CCCN1)C(=O)N[C@@H](Cc1ccc(OP(=O)(O)O)cc1)C(=O)N[C@@H](Cc1ccc(OP(=O)(O)O)cc1)C(=O)N[C@@H](Cc1c[nH]c2ccccc12)C(=O)N[C@@H](CC(=O)O)C(=O)N[C@@H](CCC(N)=O)C(=O)N[C@@H](CC(N)=O)C(=O)N[C@@H](CO)C(=O)N[C@@H](CO)C(=O)N[C@@H](CCC(=O)O)C(=O)N[C@@H](CCC(N)=O)C(=O)NCC(=O)O` [PAFSPAFDNL (pY) (pY) WDQNSSEQG, PAFSPAFDNL(pY)(pY)WDQNSSEQG] (HELM PEPTIDE1{P.A.F.S.P.A.F.D.N.L.[O=C([C@H](Cc1ccc(OP(=O)(O)O)cc1)N[*:1])[*:2]].[O=C([C@H](Cc1ccc(OP(=O)(O)O)cc1)N[*:1])[*:2]].W.D.Q.N.S.S.E.Q.G}$$$$V2.0), the IC50 in assay [1] (Apparent Inhibition (IC50)) was 0.05 µM; in assay [1] (approximate IC50, inhibition of PTB domain/c-erbB2 binding), roughly 0.05 µM. For the same compound, the “block of PTB/c-erbB2 interaction at one peptide concentration, in words” value in assay [1] (FIG. 2C, 300 nM peptides (legend says 500 nM)) was “completely block”. For the same compound, in assay [1] (peptide dephosphorylated with tyrosine-specific phosphatases), the “ability to block the PTB domain/c-erbB2 interaction after dephosphorylation” value was “unable to block”. For the same compound, the “peptide concentration at which substantial inhibition is shown” value in assay [1] (varying peptide concentrations, FIG. 2B lower blot) is reported as 50 nM. Also, in assay [2], the “direct binding to PTB domain, in words” value was “able to bind directly”. For the same compound, in assay [3], the “blocking of association of SHC PTB domain with pp145” value was “blocks association”. The “binding to SH2 domain, in words” value in assay [4] was “inability of the SH2 domain of SHC to bind”.
As to `CC(C)C[C@H](NC(=O)[C@@H]1CCCN1C(=O)[C@H](CC(C)C)NC(=O)[C@@H](NC(=O)[C@@H]1CCCN1C(=O)[C@H](CC(=O)O)NC(=O)[C@H](CCC(=O)O)NC(=O)[C@H](CO)NC(=O)[C@H](Cc1ccc(OP(=O)(O)O)cc1)NC(=O)[C@H](CCCNC(=N)N)NC(=O)[C@H](CCC(N)=O)NC(=O)[C@H](CC(C)C)NC(=O)[C@@H]1CCCN1C(=O)[C@H](CO)NC(=O)[C@H](CC(C)C)NC(=O)[C@H](CC(=O)O)NC(=O)[C@H](Cc1c[nH]cn1)NC(=O)[C@@H]1CCCN1C(=O)[C@@H](N)CO)[C@@H](C)O)C(=O)O` [SPHDLSPLQR (pY) SEDPTLPL] (HELM PEPTIDE1{S.P.H.D.L.S.P.L.Q.R.[O=C([C@H](Cc1ccc(OP(=O)(O)O)cc1)N[*:1])[*:2]].S.E.D.P.T.L.P.L}$$$$V2.0), the IC50 in assay [1] (Apparent Inhibition (IC50)) was greater than 100 µM.
In the case of `CC(C)C[C@H](NC(=O)[C@@H]1CCCN1C(=O)[C@H](C)NC(=O)[C@@H](NC(=O)[C@H](Cc1ccc(OP(=O)(O)O)cc1)NC(=O)CNC(=O)[C@H](CC(=O)O)NC(=O)[C@@H](NC(=O)[C@H](CCC(=O)O)NC(=O)[C@@H]1CCCN1C(=O)[C@@H]1CCCN1C(=O)[C@H](CC(C)C)NC(=O)[C@@H]1CCCN1C(=O)[C@H](CC(C)C)NC(=O)[C@@H](N)[C@@H](C)O)[C@@H](C)O)C(C)C)C(=O)N[C@@H](C)C(=O)N[C@@H](CS)C(=O)N[C@@H](CO)C(=O)N1CCC[C@H]1C(=O)N[C@@H](CCC(N)=O)C(=O)O` [TLPLPPETDG (pY) VAPLACSPQ, TLPLPPETDG(pY)VAPLACSPQ] (HELM PEPTIDE1{T.L.P.L.P.P.E.T.D.G.[O=C([C@H](Cc1ccc(OP(=O)(O)O)cc1)N[*:1])[*:2]].V.A.P.L.A.C.S.P.Q}$$$$V2.0), the IC50 in assay [1] (Apparent Inhibition (IC50)) was greater than 100 µM.
Regarding PAFSPAFDNLEEWDQNSSEQG, the IC50 in assay [1] (setting [5]) was greater than 30 µM.
